Data on three molecules can be found in patent US20120027819A1, “Medical Devices Incorporating a Bioactive and Methods of Preparing Such Devices” (priority 2006, published 2012).

Data set [1] in a line: Elution of bupivacaine from spray-coated ureteral stents in aqueous buffers (Example 1, FIG. 7). The class given is physicochemical. Particulars: for time to release/elute from coated stent (in words): ionic form coated on stent, aqueous environment, same conditions, hydrochloride. The text has this: (§1) An approximately 0.6% solution of bupivacaine having a tertiary amine in the non-ionic form (formula (2a) above) in dichloromethane was loaded into a syringe mounted onto a syringe pump and connected to a tube that carried the solution to an ultrasonic nozzle (Model 06-05108—Sono-Tek Co., Poughkeepsie, N.Y. 12547.) A nozzle was 6 mm diameter, 11 mm long and used with a nominal frequency of 120 kHz. Air was purged from the solution line and the spray nozzle primed with the solution. The coating chamber was purged with nitrogen to attain an oxygen concentration below 100 ppm. The solution was sprayed onto ureteral stent substrates 20 to 280 mm long (polyurethane double pigtail soflex ureteral stent, Cook Incorporated (Bloomington, Ind.)). A smooth, uniform coating was observed. Control stents were coated with the same concentration of Bupivacaine.HCl using the above coating method.
The stents were placed in solutions at different pH values to test the elution of bupivacaine over time. […] Acetic acid/sodium acetate was used for the pH 4.5 buffer, 0.1M phosphate-buffered solution (PBS) for the pH 7.0 buffer, and sodium carbonate for the pH 9.5 buffer.

Data set [2] in a line: Exposure of coated ureteral stent to water / aqueous environment (FIGS. 8, 10). It is filed as physicochemical.
Excerpt: as §1
FIGS. 8-11 depict photomicrographs of the coatings showing the uniformity and tenacity of the non-ionic coatings, in contrast to the water-soluble ionic coatings. […] FIG. 9 depicts a relatively rough, crystalline coating 91 of bupivacaine-HCl on a ureteral stent 90, on the left, and the same stent after a one-minute ex vivo exposure to a pig ureter.
FIG. 11 then depicts the same type of stent 110 with a coating 114 of the non-ionic form of bupivacaine after 24 hours in an ex vivo test with a pig ureter.

The conditions of data set [3]: cited from earlier work.
For data set [4] the following is noted: cited from earlier work. The source holds these as a separate data set.

`CCCCN1CCCCC1C(=O)Nc1c(C)cccc1C` (stereo not drawn) [bupivacaine, 1-Butyl-N-(2,6-dimethylphenyl)-2-piperidinecarboxamide]: the “effect of eluting solution pH on elution rate” value in data set [1] (increasing the pH from 4.5 to 9.5) is recorded as “slightly slowed the rate of bupivacaine elution”. The “period over which release from ureteral stent occurs” value in data set [1] (non-ionic form coated on ureteral stent, buffers pH 4.5, 7.0, 9.5) is recorded as “about 12 days”. For the same molecule, in data set [2] (exposed to an aqueous environment for several days), the “state of coating after aqueous exposure” value is “virtually no effect on the coating”. For the same molecule, the pKa (commonly the negative logarithm of the acid dissociation constant) in data set [3] (Table 1, acidic proton of proton binding site) was 8.09. Further, the “pKa of acidic proton of proton binding site” value in data set [3] (in water) was “about 8”. Also, the solubility result in data set [4] (base or non-ionic form, water) is “about 0.2 mg/mL”. For the same molecule, in data set [4], the “water solubility (in words)” value was “only very slightly soluble in water”.
Consider `CCCCN1CCCCC1C(=O)Nc1c(C)cccc1C.Cl` (stereo not drawn) [Bupivacaine.HCl, 1-butyl-N-(2,6-dimethylphenyl)-2-piperidinecarboxamide hydrochloride], for which the “time to release/elute from coated stent (in words)” value is “within a matter of minutes” in data set [1] and “eluted fully within minutes” in data set [1] (listed as bupivacaine.HCl). The “state of coating after dipping in water” value in data set [2] (dipped in water for one minute) was “substantially dissolved”. The “water solubility (in words)” value in data set [4] is recorded as “soluble in water”.
Take `C[C@@H]1C[C@H]2[C@@H]3CCC4=CC(=O)C=C[C@]4(C)[C@@]3(F)[C@@H](O)C[C@]2(C)[C@@]1(O)C(=O)CO` [Dexamethasone]: in data set [4], the “water solubility (in words)” value was “practically insoluble in water”.
